From paper PMC7457533, “Characterization of thrombin/factor Xa inhibitors in Rhizoma Chuanxiong through UPLC-MS-based multivariate statistical analysis” (Chinese Medicine, 2020)

Molecular target: T1, thrombin (THR) (Homo sapiens, UniProt P00734)
T1 construct: gene F2
Test: capillary electrophoresis immobilized enzyme microreactor, S-2238; percent inhibition at […]
Assay type: biochemical
Settings: read-out: Inhibition percentage (%)

SMILES | inhibition at 500 µM [%]
CCC/C=C1\OC(=O)C2=C1CCC=C2 [d, Z-ligustilide] | 36.9 ± 2.37
CCCCC1OC(=O)C2=C1CCC=C2 (centres unmarked) [a, Senkyunolide A] | 41.9 ± 1.84
